Assay results published in patent publication US11780826B2 (Amgen Inc., priority 2017, dated 2023).

Tested on: Bovine cardiac myofibrils
Test: In vitro model of dose-dependent myofibril ATPase modulation (AC1.4, pyruvate kinase/lactate dehydrogenase-coupled ATPase assay at pCa25)
Assay type: biochemical
Details: concentration at which ATPase activity was 1.4-fold higher than the bottom of the dose curve, mean of a minimum of two independent tests
Method in brief: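 ATP turnover tracked as NADH absorbance loss at 340 nm, coupled via pyruvate kinase/lactate dehydrogenase, with 1 mM ATP, 2 mM MgCl2 and 12 mM K-PIPES at pH 6.80 (22° C) under EGTA/CaCl2 calcium buffering. Substrate was detergent-treated bovine cardiac myofibrils; 4-parameter curve fit, AC1.4 averaged over at least two runs.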

| Structure (SMILES) | AC1.4 [µM] |
| --- | --- |
| N#Cc1cccc(C(=O)N2[C@@H](C(=O)N[C@@H](c3ccc(C(F)(F)F)cc3F)C3COC3)C[C@H]3C[C@H]32)c1 [Example 366, (1R,3R,5R)-2-(3-cyanobenzoyl)-N-((R)-(2-fluoro-4-(trifluoromethyl)phenyl)(3-oxetanyl)methyl)-2-azabicyclo[3.1.0]hexane-3-carboxamide] | 1.1445 |
| O=C(NCc1ccc(C(F)(F)F)cc1)[C@H]1CCCN1C(=O)[C@H]1CCCN(S(=O)(=O)N2CC(n3cncn3)C2)C1 [Example 679, 1-(((3S)-1-((3-(1H-1,2,4-triazol-1-yl)-1-azetidinyl)sulfonyl)-3-piperidinyl)carbonyl)-N-(4-(trifluoromethyl)benzyl)-D-prolinamide] | 5.023 |
| O=C(NCc1ccc(C(F)(F)F)cc1)[C@H]1CC2(CC2)CN1C(=O)c1cccc(S(=O)(=O)N2CC3(CC3)C2)c1 [Example 312, (6R)-5-((3-(5-azaspiro[2.3]hex-5-ylsulfonyl)phenyl)carbonyl)-N-(4-(trifluoromethyl)benzyl)-5-azaspiro[2.4]heptane-6-carboxamide] | 0.841 |
| N#CC1CN(S(=O)(=O)N2CCC[C@H](C(=O)N3CCC[C@@H]3C(=O)NCc3cnc(C(F)(F)F)nc3)C2)C1 [Example 400, 1-(((3S)-1-((3-cyano-1-azetidinyl)sulfonyl)-3-piperidinyl)carbonyl)-N-((2-(trifluoromethyl)-5-pyrimidinyl)methyl)-D-prolinamide] | 1.4048 |
| C[C@@H](NC(=O)[C@H]1CCCN1C(=O)[C@H]1CCCN(S(=O)(=O)N2CC(C#N)C2)C1)c1ccc(C(F)(F)F)cc1F [Example 29, 1-(((3S)-1-((3-cyano-1-azetidinyl)sulfonyl)-3-piperidinyl)carbonyl)-N-((1R)-1-(2-fluoro-4-(trifluoromethyl)phenyl)ethyl)-D-prolinamide] | 0.03155 |
| CS(=O)(=O)c1cccc(C(=O)N2[C@@H](C(=O)N[C@@H](c3ccc(Cl)cc3F)C3CC3)C[C@H]3C[C@H]32)c1 [Example 344, (1R,3R,5R)-N-((R)-(4-chloro-2-fluorophenyl)(cyclopropyl)methyl)-2-(3-(methylsulfonyl)benzoyl)-2-azabicyclo[3.1.0]hexane-3-carboxamide] | 0.9555 |
| CS(=O)(=O)c1cccc(C(=O)N2CC[C@H]2C(=O)N[C@@H](c2cc(F)c(Cl)cc2F)C2CC2)c1 [Example 732, (2S)-N-((R)-(4-chloro-2,5-difluorophenyl)(cyclopropyl)methyl)-1-(3-(methylsulfonyl)benzoyl)-2-azetidinecarboxamide] | 6.7885 |
| NC(=O)C1(c2cccc(C(=O)N3CCC[C@@H]3C(=O)N[C@@H](c3ccc(C(F)(F)F)cc3F)C3CC3)c2)CC1 [Example 533, 1-(3-(1-carbamoylcyclopropyl)benzoyl)-N-((R)-cyclopropyl(2-fluoro-4-(trifluoromethyl)phenyl)methyl)-D-prolinamide] | 2.5883 |
| NS(=O)(=O)c1cccc(C(=O)N2[C@@H](C(=O)N[C@@H](c3cc(F)c(Cl)cc3F)C3CC3)C[C@H]3C[C@H]32)c1 [Example 139, (1R,3R,5R)-N-((R)-(4-chloro-2,5-difluorophenyl)(cyclopropyl)methyl)-2-(3-sulfamoylbenzoyl)-2-azabicyclo[3.1.0]hexane-3-carboxamide] | 0.232 |
| Cc1cc(C(=O)N2[C@@H](C(=O)N[C@@H](c3ccc(C(F)(F)F)cc3F)C3COC3)C[C@H]3C[C@H]32)c(NCCO)cn1 [Example 541, (1R,3R,5R)-N-((R)-(2-fluoro-4-(trifluoromethyl)phenyl)(3-oxetanyl)methyl)-2-((5-((2-hydroxyethyl)amino)-2-methyl-4-pyridinyl)carbonyl)-2-azabicyclo[3.1.0]hexane-3-carboxamide] | 2.789 |
| CN(Cc1ccc(Cl)cc1)C(=O)C1CCCN1C(=O)c1cccc(S(=O)(=O)N2CC(C#N)C2)c1 (stereo not shown) [Example 162, N-(4-chlorobenzyl)-1-((3-((3-cyano-1-azetidinyl)sulfonyl)phenyl)carbonyl)-N-methyl-prolinamide] | 0.2767 |
| O=C(NCc1ccc(C(F)(F)F)cc1)[C@H]1CCCN1C(=O)[C@H]1CCCN(S(=O)(=O)N2CC(c3ccon3)C2)C1 [Example 227, 1-(((3S)-1-((3-(1,2-oxazol-3-yl)-1-azetidinyl)sulfonyl)-3-piperidinyl)carbonyl)-N-(4-(trifluoromethyl)benzyl)-D-prolinamide] | 0.4927 |
| O=C(NCc1ccc(C(F)(F)F)cc1)[C@H]1CCCN1C(=O)[C@H]1CCCN(S(=O)(=O)C2COC2)C1 [Example 664, 1-(((3S)-1-(3-oxetanylsulfonyl)-3-piperidinyl)carbonyl)-N-(4-(trifluoromethyl)benzyl)-D-prolinamide] | 4.669 |
| O=C(N[C@@H](c1ccc(C(F)(F)F)cc1F)C1COC1)[C@H]1C[C@H]2C[C@H]2N1C(=O)c1ccccc1NC(=O)C(F)(F)F [Example 351, (1R,3R,5R)-N-((R)-(2-fluoro-4-(trifluoromethyl)phenyl)(3-oxetanyl)methyl)-2-(2-(2,2,2-trifluoroacetamido)benzoyl)-2-azabicyclo[3.1.0]hexane-3-carboxamide] | 1.0354 |
| O=C(O)CS(=O)(=O)c1cccc(C(=O)N2[C@@H](C(=O)N[C@@H](c3cc(F)c(C(F)(F)F)cc3F)C3CC3)C[C@H]3C[C@H]32)c1 [Example 306, ((3-(((1R,3R,5R)-3-(((R)-cyclopropyl(2,5-difluoro-4-(trifluoromethyl)phenyl)methyl)carbamoyl)-2-azabicyclo[3.1.0]hexan-2-yl)carbonyl)phenyl)sulfonyl)acetic acid] | 0.8057 |
| Cc1cc(C(=O)N2[C@@H](C(=O)N[C@@H](c3ccc(C(F)(F)F)cc3F)C3COC3)C[C@H]3C[C@H]32)cc(S(C)(=O)=O)c1 [Example 323, (1R,3R,5R)-N-((R)-(2-fluoro-4-(trifluoromethyl)phenyl)(3-oxetanyl)methyl)-2-(3-methyl-5-(methylsulfonyl)benzoyl)-2-azabicyclo[3.1.0]hexane-3-carboxamide] | 0.8707 |
| O=C(N[C@@H](c1ccc(C(F)(F)F)cc1F)C1CC1)[C@H]1CCCN1C(=O)c1cccc(C(O)(O)C(F)(F)F)c1 [Example 523, (R)—N—((R)-cyclopropyl(2-fluoro-4-(trifluoromethyl)phenyl)methyl)-1-(3-(2,2,2-trifluoro-1,1-dihydroxyethyl)benzoyl)pyrrolidine-2-carboxamide] | 2.582 |
| O=C(N[C@@H](c1ccc(C(F)(F)F)cc1F)C1CC1)[C@H]1C[C@H]2C[C@H]2N1C(=O)c1cncc(C(F)(F)F)c1 [Example 680, (1R,3R,5R)-N-((R)-cyclopropyl(2-fluoro-4-(trifluoromethyl)phenyl)methyl)-2-((5-(trifluoromethyl)-3-pyridinyl)carbonyl)-2-azabicyclo[3.1.0]hexane-3-carboxamide] | 5.0333 |
| N#CC1CN(S(=O)(=O)N2CCC[C@H](C(=O)N3CCC[C@@H]3C(=O)NCc3ncc(C(F)(F)F)cc3F)C2)C1 [Example 515, 1-(((3S)-1-((3-cyano-1-azetidinyl)sulfonyl)-3-piperidinyl)carbonyl)-N-((3-fluoro-5-(trifluoromethyl)-2-pyridinyl)methyl)-D-prolinamide] | 2.441 |
